Experimental findings from publication PMC4641600, “Novel Activities of Select NSAID R-Enantiomers against Rac1 and Cdc42 GTPases” (PLoS ONE, 2015) are described below.

Assay [1] has as its target Rac1Q61L activating mutant (Homo sapiens, UniProt P63000, Q61L). In words: Dose response, BODIPY-GTP binding. To be noted: 10 nM to 100 µM.
The test system of another assay is Ras-related GTPases. In words: Confirmatory dose response assays on eight Ras-related GTPases. It is filed as binding. As for the experimental part: (§1) For multiplex analyses of small GTPases, 4 μm diameter glutathione-beads (GSH-beads) distinguished by seven different intensities of red fluorescence were used according to our previously described protocols. The GST-GTPases included the following eight Ras-related small GTPases: Rab2 wt, Rab7 wt, Cdc42 wt, Cdc42Q61L activating mutant, H-Ras wt, H-RasG12V, Rac1 wt and Rac1Q61L activating mutant. Briefly, Prestwick Chemical Library® compounds were tested at 10 μM compound and 1% DMSO final concentrations. After a 10 min pre-incubation with the compound BODIPY- FL-GTP (100 nM final) was added to each well and bead associated fluorescence was measured. Sample analysis was conducted with a HyperCyt® high throughput flow cytometry platform. Flow cytometric light scatter at 488 nm and fluorescence emission at 530 +/− 20 nm (FL1) and 665 +/− 10 nm (FL8) were collected on a Cyan ADP flow cytometer (Beckman Coulter, Fullerton, CA). IDLQuery software was used to determine the compound activity in each well. Gating based on forward scatter (FS) and side scatter (SS) parameters was used to identify singlet bead populations. Gating based on FL8 emission distinguishes the beads coated with different proteins, and the median FL1 fluorescence per bead population were calculated. A compound was considered a “potential active” if the change in BODIPY-FL-GTP binding differed greater than 20% from that measured in DMSO treated controls.
(§2) Test compounds identified for follow-up after the primary screen were tested at dilutions ranging from 10 nM to 100 μM final concentration against individual GTPases in multiplex and single-plex assays. Compounds tested in dose response assays were serially diluted 1:3 a total of eight times from a starting concentration of 10 mM giving a 9-point dilution series in DMSO.
(§3) bConfirmatory screens entailed dose response assays conducted in a multiplex format with eight GTPases tested as for primary screen. BODIPY-GTP-binding activity was
(§4) measured in the presence of 10 nM to 100 µM of each of 11 test compounds (4 primary screen hits and 7 additional NSAIDs considered to have chemical similarity to GTPase
(§5) active compounds). GST-GFP coated beads served as a control to detect non-specific dissociation or denaturation caused by compound addition–none of the tested NSAIDs had
(§6) any effect on bead-GST-protein binding. EC50 values were determined using Prism to determine dose response fits as shown in Figure 1 of main text; fits have R2 > 0.9. Active
(§7) compounds based on same definition used as in primary screena. […]
(§8) ‡A well-characterized selective Cdc42 inhibitor served as a positive control.

The next assay deals with T1, Cdc42 (Homo sapiens, UniProt P60953).
T1 construct: endogenous in cells; host or cells: HeLa
T1 sequence (P60953 whole entry): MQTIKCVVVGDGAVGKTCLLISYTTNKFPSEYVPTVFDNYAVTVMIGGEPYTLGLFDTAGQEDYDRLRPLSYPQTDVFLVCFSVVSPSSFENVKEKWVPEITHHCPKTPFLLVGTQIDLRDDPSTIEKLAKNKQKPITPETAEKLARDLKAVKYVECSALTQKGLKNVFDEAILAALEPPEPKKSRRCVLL
Nature of the assay: G-trap flow cytometric effector binding assay, HeLa cells. It is filed as cell-based. (In general: In flow cytometry, cells or beads pass a laser one at a time.)

A further assay concerns the target Cdc42 wt (Homo sapiens, UniProt P60953). Nature of the assay: Dose response, BODIPY-GTP binding. To be noted: 10 nM to 100 µM.
A further assay has as its target T2, human COX-2 (Homo sapiens, UniProt P35354).
T2 construct: purchased CEREP Laboratories (contract assay); host or cells: Sf-9
T2 sequence (P35354 18-604): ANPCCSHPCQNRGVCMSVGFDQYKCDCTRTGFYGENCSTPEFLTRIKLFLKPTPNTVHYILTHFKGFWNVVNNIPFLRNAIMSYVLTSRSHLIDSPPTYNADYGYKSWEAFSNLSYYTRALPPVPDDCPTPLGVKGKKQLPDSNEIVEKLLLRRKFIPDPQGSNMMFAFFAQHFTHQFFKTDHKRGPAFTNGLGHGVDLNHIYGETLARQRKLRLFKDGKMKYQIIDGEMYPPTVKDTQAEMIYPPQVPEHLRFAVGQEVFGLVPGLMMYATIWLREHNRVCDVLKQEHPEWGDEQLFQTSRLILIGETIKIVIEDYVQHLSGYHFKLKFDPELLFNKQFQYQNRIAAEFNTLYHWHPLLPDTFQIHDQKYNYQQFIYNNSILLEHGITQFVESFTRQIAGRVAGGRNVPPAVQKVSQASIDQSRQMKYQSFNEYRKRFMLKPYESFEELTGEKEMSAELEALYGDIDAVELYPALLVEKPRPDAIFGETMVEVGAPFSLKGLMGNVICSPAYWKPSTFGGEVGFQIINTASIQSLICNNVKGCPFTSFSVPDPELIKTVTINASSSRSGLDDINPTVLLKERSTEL
Nature of the assay: Cyclooxygenase assay (CEREP), PGE2 formation. It is filed as biochemical. To be noted: recombinant enzyme, 4 μM arachidonic acid.

The next assay deals with T3, Rac1 (Homo sapiens, UniProt P63000).
T3 construct: endogenous in cells; host or cells: HeLa
In words: G-trap flow cytometric effector binding assay, HeLa cells. Format: cell-based.

Another assay addresses H-RasG12V (Homo sapiens, UniProt P01112, G12V). Nature of the assay: Dose response, BODIPY-GTP binding. To be noted: 10 nM to 100 µM. As for the experimental part: as §1, §2, §3, §4, §5, §6, §7, §8
Assay [2] has as its system Rac1 and Tiam1 protein levels. In words: Immunoblot of protein levels. Format: cell-based, human. As for the experimental part: Cells were stimulated with EGF at a final concentration of 1 nM for 10 min. Cells were lysed in a RIPA buffer consisting of 50 mM Tris pH 7.4, 1% NP-40, 0.25% sodium deoxycholate, 150 mM NaCl, 1 mM EDTA, 1 mM PMSF, 1 mM sodium vanadate, 10 mM sodium fluoride, 1 μg/mL each of pepstatin, aprotinin and leupeptin, 10 mM sodium pyrophosphate and 10 mM beta-glycerophosphate.
N = 3. See also Figure D in S1 File for time dependent loss of Rac1 membrane localization. N = 3 (B) Quantification of image intensity using Image J of 3 representative confocal images as shown in panel (A) containing 20–30 cells/field normalized to actin and untreated controls. (C) Western blot analyses of lysates from cells treated with 300 μM compound as indicated for 24 h as compared to untreated controls. […] Blots were probed for Tiam1 (200 kDa), GAPDH (37 kDa), Rac1 (20 kDa), as a loading control. (D) Quantification of image intensity using Image J. Each marker was normalized to GAPDH and untreated controls. N = 3.
For orientation: In western blotting, separated proteins are transferred to a membrane and probed.

A further assay has as its target GST-Rac1 (Homo sapiens, UniProt P63000). Nature of the assay: In vitro nucleotide binding assay on individual GTPase (13 µm GSH beads). To be noted: GST-Rac1 and GST-Cdc42; BODIPY-GTP 300 nM.
Assay [3] concerns Tiam1 membrane localization. Nature of the assay: Tiam1 immunolocalization, OvCa433 cells. Format: cell-based, human. On the procedure: OvCa433 were plated on coverslips, treated with 300 μM NSAIDs for 1 h, fixed with 3% paraformaldehyde and immunostained for Rac1 or Tiam1. Actin was visualized with rhodamine phalloidin from Invitrogen (F432). Cells were imaged on a Zeiss LSM510 using a 63x objective and quantified using Image J.
Rac1 and Tiam1 antibodies were confirmed in our hands to recognize single protein species of the predicted molecular weight by immunoblot.

Cdc42 wt, sequence (P60953 whole entry): as the sequence (P60953 whole entry) above

As usually defined, the IC50 is the concentration that inhibits the measured activity by half. For `COc1ccc2cc(CC(=O)O)ccc2c1` [6-MNA, 6-methoxy-2-napthalene acetic acid], in assay [1], the “Rac1 (act) EC50” value was “inactive”. Also, the “activity against the GTPases in confirmatory dose response assays (words)” value with Ras-related GTPases (10 nM to 100 µM) is “lacked activity”; in the assay on Ras-related GTPases (10 nM to 100 μM, listed as 6MNA), “inactive”. Further, the effect result in the assay with Ras-related GTPases (at 0.1 mM, against all GTPases) is given as “less than 20%”. At Cdc42, the “fold lower potency than R-naproxen, Cdc42” value was found to be 3 fold. Further, on Cdc42 wt, the “Cdc42 wt EC50” value was “inactive”. Also, at human COX-2, the IC50 was above 100 µM. The “fold lower potency than R-naproxen, Rac1” value on Rac1 is given as “up to 6 fold”. For the same compound, the “H-Ras (act) EC50” value at H-RasG12V is “inactive”. The “total Rac1 or Tiam1 protein levels” value in [2] (300 μM, 24 h, immunoblot) was “did not alter”. Also, the Rac protein expression entry in [2] (immunoblot analysis) is reported as “No change”. Besides, the “inhibition of BODIPY-GTP binding” value at GST-Rac1 was “inactive”. For the same compound, in assay [3] (300 μM), the “Tiam1 membrane localization” value is “only slightly reduced”. Also, the “Tiam1 GEF PM localiz.” value in assay [3] (immunofluorescence quantified using ImageJ) is recorded as 73%.
